{"source": "BigSolDB 2.1"}
{"smiles": "N[C@@H](C(=O)N[C@@H]1C(=O)N2C(C(=O)O)=C(Cl)CS[C@H]12)c1ccccc1.O", "values": [{"measurement": "solubility (mole fraction)", "setting": "in acetone, 278.15 K", "value": "2.05e-05"}, {"measurement": "solubility (mole fraction)", "setting": "in acetone, 283.15 K", "value": "2.67e-05"}, {"measurement": "solubility (mole fraction)", "setting": "in acetone, 288.15 K", "value": "3.43e-05"}, {"measurement": "solubility (mole fraction)", "setting": "in acetone, 293.15 K", "value": "4.35e-05"}, {"measurement": "solubility (mole fraction)", "setting": "in acetone, 298.15 K", "value": "5.48e-05"}, {"measurement": "solubility (mole fraction)", "setting": "in acetone, 303.15 K", "value": "6.84e-05"}, {"measurement": "solubility (mole fraction)", "setting": "in acetone, 308.15 K", "value": "8.57e-05"}, {"measurement": "solubility (mole fraction)", "setting": "in acetone, 313.15 K", "value": 0.000108}, {"measurement": "solubility (mole fraction)", "setting": "in ethanol, 278.15 K", "value": "2.36e-05"}, {"measurement": "solubility (mole fraction)", "setting": "in ethanol, 283.15 K", "value": "3.05e-05"}, {"measurement": "solubility (mole fraction)", "setting": "in ethanol, 288.15 K", "value": "3.86e-05"}, {"measurement": "solubility (mole fraction)", "setting": "in ethanol, 293.15 K", "value": "4.76e-05"}, {"measurement": "solubility (mole fraction)", "setting": "in ethanol, 298.15 K", "value": "5.71e-05"}, {"measurement": "solubility (mole fraction)", "setting": "in ethanol, 303.15 K", "value": "6.72e-05"}, {"measurement": "solubility (mole fraction)", "setting": "in ethanol, 308.15 K", "value": "7.92e-05"}, {"measurement": "solubility (mole fraction)", "setting": "in ethanol, 313.15 K", "value": "9.55e-05"}, {"measurement": "solubility (mole fraction)", "setting": "in methanol, 278.15 K", "value": "8.68e-05"}, {"measurement": "solubility (mole fraction)", "setting": "in methanol, 283.15 K", "value": 0.000101}, {"measurement": "solubility (mole fraction)", "setting": "in methanol, 288.15 K", "value": 0.000115}, {"measurement": "solubility (mole fraction)", "setting": "in methanol, 293.15 K", "value": 0.000129}, {"measurement": "solubility (mole fraction)", "setting": "in methanol, 298.15 K", "value": 0.000145}, {"measurement": "solubility (mole fraction)", "setting": "in methanol, 303.15 K", "value": 0.000163}, {"measurement": "solubility (mole fraction)", "setting": "in methanol, 308.15 K", "value": 0.000186}, {"measurement": "solubility (mole fraction)", "setting": "in methanol, 313.15 K", "value": 0.000214}, {"measurement": "solubility (mole fraction)", "setting": "in water, 278.15 K", "value": 0.000387}, {"measurement": "solubility (mole fraction)", "setting": "in water, 283.15 K", "value": 0.000401}, {"measurement": "solubility (mole fraction)", "setting": "in water, 288.15 K", "value": 0.000417}, {"measurement": "solubility (mole fraction)", "setting": "in water, 293.15 K", "value": 0.000445}, {"measurement": "solubility (mole fraction)", "setting": "in water, 298.15 K", "value": 0.000476}, {"measurement": "solubility (mole fraction)", "setting": "in water, 303.15 K", "value": 0.000511}, {"measurement": "solubility (mole fraction)", "setting": "in water, 308.15 K", "value": 0.000551}, {"measurement": "solubility (mole fraction)", "setting": "in water, 313.15 K", "value": 0.000602}]}
